Results published in ChEMBL document CHEMBL1122972, “Angiotensin-converting enzyme inhibitors: synthesis and biological activity of acyl tripeptide analogues of enalapril” (J Med Chem, 1985).
pIC50: −log10 of the molar value. Square brackets hold non-standard residues; d marks the D form. Peptide text beside a SMILES is read from it. * marks the point of attachment. Hydrocinnamoyl = O=C(CCc1ccccc1)*; pGlu = O=C1CC[C@@H](C(=O)O)N1; Bz = O=C(c1ccccc1)*

Target: Angiotensin-converting enzyme (Homo sapiens, UniProt P12821)
Sequence (P12821 whole entry): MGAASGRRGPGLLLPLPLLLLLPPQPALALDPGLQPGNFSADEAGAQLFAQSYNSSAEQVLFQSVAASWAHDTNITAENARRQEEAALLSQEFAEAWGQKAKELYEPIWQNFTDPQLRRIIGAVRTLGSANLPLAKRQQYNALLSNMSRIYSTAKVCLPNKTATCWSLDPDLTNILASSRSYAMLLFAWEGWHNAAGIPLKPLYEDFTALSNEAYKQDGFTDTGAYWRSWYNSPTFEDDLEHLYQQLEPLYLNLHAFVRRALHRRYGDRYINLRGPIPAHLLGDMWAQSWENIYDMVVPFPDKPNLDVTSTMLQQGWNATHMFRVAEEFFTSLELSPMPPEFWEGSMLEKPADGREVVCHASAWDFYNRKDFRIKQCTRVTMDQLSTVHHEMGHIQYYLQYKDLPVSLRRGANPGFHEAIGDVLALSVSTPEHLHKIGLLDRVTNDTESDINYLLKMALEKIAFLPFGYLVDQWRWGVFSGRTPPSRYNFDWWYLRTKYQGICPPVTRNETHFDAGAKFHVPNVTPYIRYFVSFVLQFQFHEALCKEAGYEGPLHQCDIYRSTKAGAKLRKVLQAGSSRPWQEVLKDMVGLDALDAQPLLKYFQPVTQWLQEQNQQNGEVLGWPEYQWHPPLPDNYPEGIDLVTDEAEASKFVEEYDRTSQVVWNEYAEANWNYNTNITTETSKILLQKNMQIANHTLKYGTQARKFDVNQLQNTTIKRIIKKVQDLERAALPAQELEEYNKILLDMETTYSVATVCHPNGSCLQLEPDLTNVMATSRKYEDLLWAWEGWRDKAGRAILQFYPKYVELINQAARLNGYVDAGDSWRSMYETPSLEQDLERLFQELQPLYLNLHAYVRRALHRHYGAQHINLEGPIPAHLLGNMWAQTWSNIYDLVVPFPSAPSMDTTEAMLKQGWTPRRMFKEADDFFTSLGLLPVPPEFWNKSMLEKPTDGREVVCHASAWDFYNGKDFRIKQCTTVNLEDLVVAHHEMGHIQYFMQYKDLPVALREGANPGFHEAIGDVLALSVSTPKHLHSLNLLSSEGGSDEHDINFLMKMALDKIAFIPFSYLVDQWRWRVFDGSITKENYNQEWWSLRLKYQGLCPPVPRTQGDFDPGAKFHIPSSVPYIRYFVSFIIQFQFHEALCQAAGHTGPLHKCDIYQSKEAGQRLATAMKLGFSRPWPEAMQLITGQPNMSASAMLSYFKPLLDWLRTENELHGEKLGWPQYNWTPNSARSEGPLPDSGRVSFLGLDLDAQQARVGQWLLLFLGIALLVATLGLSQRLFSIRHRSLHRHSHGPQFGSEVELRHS
Experiment: In vitro inhibitory activity against Angiotensin I converting enzyme
Settings: read-out: I50

SMILES	pIC50
O=C(CCC(=O)N1CCCC1C(=O)O)CCc1ccccc1 (centres undefined)	2.59
C[C@H](NC(=O)[C@@H](N)Cc1ccccc1)C(=O)N1CCC[C@H]1C(=O)O (H-Phe-Ala-Pro-OH)	5.85
C[C@H](NC(=O)[C@H](Cc1ccccc1)NC(=O)c1ccccc1)C(=O)N1CCC[C@H]1C(=O)O (Bz-Phe-Ala-Pro-OH)	5.57
C[C@H](NC(=O)[C@H](Cc1ccccc1)NC(=O)[C@H](CCCCN)NC(=O)[C@@H]1CCC(=O)N1)C(=O)N1CCC[C@H]1C(=O)O ([pGlu]KFAP-OH)	5.30
C[C@H](NC(=O)CCc1ccccc1)C(=O)N1CCC[C@H]1C(=O)O (Hydrocinnamoyl-Ala-Pro-OH)	3.48
C[C@H](N[C@@H](C(=O)O)[C@H](Cc1ccccc1)NC(=O)c1ccccc1)C(=O)N1CCC[C@H]1C(=O)O	5.85

Now those with a higher pIC50, led by results:

pIC50	SMILES
6.15	C[C@H](N[C@H](C(=O)O)[C@@H]1CCCN1)C(=O)N1CCC[C@H]1C(=O)O
7.40	C[C@H](NC(CNC(=O)c1ccccc1)C(=O)O)C(=O)N1CCC[C@H]1C(=O)O (some centres undefined)
7.77	C[C@H](N[C@@H](CNC(=O)c1ccccc1)C(=O)O)C(=O)N1CCC[C@H]1C(=O)O
8.03	CC(=O)N1CCCC1C(NC(C)C(=O)N1CCCC1C(=O)O)C(=O)O (centres undefined)
8.11	C[C@H](N[C@H](C(=O)O)[C@H](Cc1ccccc1)NC(=O)c1ccccc1)C(=O)N1CCC[C@H]1C(=O)O
8.32	C[C@H](N[C@H](C[C@H](Cc1ccccc1)NC(=O)c1ccccc1)C(=O)O)C(=O)N1CCC[C@H]1C(=O)O
8.52	C[C@H](N[C@@H](C[C@H](Cc1ccccc1)NC(=O)c1ccccc1)C(=O)O)C(=O)N1CCC[C@H]1C(=O)O
8.54	CC(NC(C(=O)O)C1CCCN1C(=O)c1ccccc1)C(=O)N1CCCC1C(=O)O (centres undefined)
